Consider 2 compounds from patent US20190275049A1, “Combination of an EGFR T790M Inhibitor and a CDK Inhibitor for the Treatment of Non-Small Cell Lung Cancer” (PFIZER INC., priority 2016, published 2019).

One data set has as its system H1975 xenograft tumors. As to the kind of experiment: H1975 xenograft model, tumor growth inhibition. In kind it is in vivo, nude/nude (nu/nu) female mice. The following applies: oral, daily. The text has this: Four- to six-week-old nude/nude (nu/nu) female mice were obtained from Charles River Laboratories (Hollister, Calif., USA) and maintained in pressurized ventilated caging at the Pfizer La Jolla animal facility. All studies were approved by Pfizer Institutional Animal Care and Use Committees. Xenograft tumors were established by subcutaneously implanting 5×10^6 H1975 cells suspended 1:1 (v/v) with reconstituted basement membrane (Matrigel, BD Biosciences) in nu/nu mice. […] Tumor dimensions were measured with vernier calipers and tumor volumes were calculated using the formula of π/6×larger diameter x (smaller diameter)^2. […] Tumor regression percentage was calculated as 100×(1−ΔT/starting tumor size).

In data set [1] the test system is H1975 cell line. In words: H1975 duration of response study, T75 flask format. The following applies: for Time Elapsed: H1975, T75 flask, single agent: 100 nM palbociclib or 600 nM PF-06747775; for delay in time required to reach a specific total cell number compared to DMSO control (FIG. 1) / number of days for 5×10^5 cells to grow to 8×10^6 cells, Independent Experiment Number 1 / number of days for 5×10^5 cells to grow to 8×10^6 cells, Independent Experiment Number 2: H1975, PF-06747775 600 nM, palbociclib 100 nM, single agents or combination. In kind it is cell-based, human. Here is the method: (§1) This experimental approach provides a model of DOR and a means for testing whether combination regimens can increase or extend DOR (Tricker E M, Xu C, Uddin S, et al. Combined EGFR/MEK Inhibition Prevents the Emergence of Resistance in EGFR-Mutant Lung Cancer. Cancer Discov 2015; 5(9):960-71). […] Two different assay formats were used to facilitate quantitative assessment of time to regrowth and to address reproducibility in orthogonal formats.
H1975 cells were seeded (5×10^5 cells per flask) in T75 flasks (one or two flasks per treatment condition). […] Time was monitored. When growth reached 70-90% confluence, the cells were harvested, counted, and half of the collected cells were used to seed a fresh T75 flask. Once growth reached 70-90% confluence again, this process was repeated, then repeated again and again until a constant growth rate was achieved. Results were plotted as total live cells counted over time, for example, at each harvest, the cell number counted at that harvest was added to previous cell count numbers, then plotted as total live cells at that time point.

The nature of data set [2]: Plasma drug levels in H1975 xenograft study (blood samples day 15).
Procedure: Drugs were formulated once per in vivo experiment and were dosed daily at a concentration of 10 mL/kg through oral gavage.
Another data set concerns Cytochrome P-450 3A4. The following applies: in vivo; cited from earlier work.
In the next data set the test system is HCC4006 cell line. As to the kind of experiment: HCC4006 duration of response study, T75 flask format. In kind it is cell-based, human. The following applies: method of Example 2 (PF-06747775 600 nM, palbociclib 100 nM).
The subject of a further data set is PC9 cell line. As to the kind of experiment: PC9 duration of response study, T75 flask format. In kind it is cell-based, human. The following applies: method of Example 2 (PF-06747775 600 nM, palbociclib 100 nM).
The test system of data set [3] is H1975 cell line. In words: H1975 duration of response study, 96-well plate format. The following applies: PF-06747775 600 nM, palbociclib 100 nM, single agents or combination. In kind it is cell-based, human.
Excerpt: as §1
A 96-well plate format assay was adapted from a published report (Tricker, E., et al., “Combined EGFR/MEK Inhibition Prevents the Emergence of Resistance in EGFR-Mutant Lung Cancer,” Cancer Discovery, 2015, 960-971, vol. 5, no. 9). […] Time was monitored. […] Non-terminal reading of live cells was conducted weekly using an IncuCyte instrument (microscopy-based cell counting, Essen Bioscience, Ann Arbor, Mich., USA). At selected time points throughout the treatment duration, a terminal reading of live cells by Cell Titer Glow method (cell ATP-based counting, Promega, Madison, Wis., USA) was used to confirm cell counts over time and at the end of study. Results were plotted as percent of wells reaching a designated confluency (e.g. 50% confluent) at different time points throughout the treatment period.

A further data set relates to HCC827 cell line. In words: HCC827 duration of response study, T75 flask format. The following applies: method of Example 2 (PF-06747775 600 nM, palbociclib 100 nM). In kind it is cell-based, human.

As for `C=CC(=O)N[C@@H]1CN(c2nc(Nc3cn(C)nc3OC)c3ncn(C)c3n2)C[C@H]1F` [PF-06747775, N-((3R,4R)-4-fluoro-1-(6-((3-methoxy-1-methyl-1H-pyrazol-4-yl)amino)-9-methyl-9H-purin-2-yl)pyrrolidin-3-yl)acrylamide], the “anti-tumor efficacy of single agent after 10 days of dosing” value with H1975 xenograft tumors (PF-06747775 10 mpk, 10 days) is on record as “less than the desired comparator level”. Further, in the data set with H1975 xenograft tumors (PF-06747775 single agent, 10/20 mpk (20 mpk from day 11)), the “effect on tumor growth inhibition (TGI) (FIG. 2)” value (“effect on tumor growth inhibition” below) was “moderate effect”. For the same compound, in the data set on H1975 cell line [1], the “Time Elapsed” value came out at 21 days; the “delay in time required to reach a specific total cell number compared to DMSO control (FIG. 1)” value is recorded as “significant delay”; the “number of days for 5×10^5 cells to grow to 8×10^6 cells, Independent Experiment Number 1” value is on record as 15 days; the “number of days for 5×10^5 cells to grow to 8×10^6 cells, Independent Experiment Number 2” value is listed as 21 days. Moreover, in data set [2] (PF-06747775 10/20 mpk alone), the “Plasma Average Free Drug Concentration Over the 24 hour Dosing Interval, PF-06747775” value was 95 nM. Moreover, the “metabolism by Cytochrome P-450 3A4” value in the data set on Cytochrome P-450 3A4 is “metabolized in vivo by this same enzyme”. Besides, in the data set with HCC4006 cell line, the “HCC4006 Time elapsed (days) for 5×10^5 cells to grow to 8×10^6 cells” value is 51 days. In the data set on PC9 cell line, the “PC9 Time elapsed (days) for 5×10^5 cells to grow to 8×10^6 cells” value was determined as 73 days. Moreover, in the data set with H1975 cell line [3], the “number of days for 350 cells per well to grow to 50% of the wells reaching 50% confluence, Independent Experiment Number 1” value was 16 days and the “number of days for 350 cells per well to grow to 50% of the wells reaching 50% confluence, Independent Experiment Number 2” value was 19 days.
Turning to `CC(=O)c1c(C)c2cnc(Nc3ccc(N4CCNCC4)cn3)nc2n(C2CCCC2)c1=O` [palbociclib, 6-acetyl-8-cyclopentyl-5-methyl-2-(5-piperazin-1-yl-pyridin-2-ylamino)-8H-pyrido[2,3-d]pyrimidin-7-one], the “effect on tumor growth inhibition” value in the data set on H1975 xenograft tumors (palbociclib single agent, 70 mpk) is “minor effect”. The “effect on tumor growth inhibition” value in the data set with H1975 xenograft tumors (palbociclib single agent, lower doses (22 mpk and 7 mpk)) was “no effect”. In addition, in the data set on HCC827 cell line, the “HCC827 (independent experiment) Number 1 (days) for 5×10^5 cells to grow to 8×10^6 cells” value turned out to be 11 days and the “HCC827 (independent experiment) Number 2 (days) for 5×10^5 cells to grow to 8×10^6 cells” value stood at 11 days. For the same compound, in the data set on H1975 cell line [1], the “Time Elapsed” value is listed as 5 days; the “delay in time required to reach a specific total cell number compared to DMSO control (FIG. 1)” value was “slight delay, if any”; the “number of days for 5×10^5 cells to grow to 8×10^6 cells, Independent Experiment Number 1” value amounted to 4 days; the “number of days for 5×10^5 cells to grow to 8×10^6 cells, Independent Experiment Number 2” value was 5 days. The “Plasma Average Free Drug Concentration Over the 24 hour Dosing Interval, Palbociclib” value in data set [2] (Palbo 7 mpk alone) is given as 6 nM. In addition, the “Plasma Average Free Drug Concentration Over the 24 hour Dosing Interval, Palbociclib” value in data set [2] (Palbo 22 mpk alone) is given as 45 nM. Besides, the “Plasma Average Free Drug Concentration Over the 24 hour Dosing Interval, Palbociclib” value in data set [2] (Palbo 70 mpk alone) worked out at 127 nM. For the same compound, the “HCC4006 Time elapsed (days) for 5×10^5 cells to grow to 8×10^6 cells” value in the data set on HCC4006 cell line came to 18 days. Moreover, in the data set with PC9 cell line, the “PC9 Time elapsed (days) for 5×10^5 cells to grow to 8×10^6 cells” value was 5 days. Further, in the data set with H1975 cell line [3], the “number of days for 350 cells per well to grow to 50% of the wells reaching 50% confluence, Independent Experiment Number 1” value came out at 7 days and the “number of days for 350 cells per well to grow to 50% of the wells reaching 50% confluence, Independent Experiment Number 2” value worked out at 7 days.
